Values joined by “and” are separate entries in the source; they are usually repeats but may differ in a detail not shown here. Equal entries are not always repeated. Where two headings read alike, the source gives them in different places.
Key:
[1] = tested on: hDT7 cells; assay: cells; assay type: cell-based, Chinese hamster; conditions: read-out: IC50 hDT7
[2] = tested on: T116 cells; assay: cells; assay type: cell-based, Chinese hamster
[3] = molecular target: T1, E. coli nitroreductase (Escherichia coli, UniProt P38489); conditions: pH 7
[4] = tested on: F179 cells; conditions: read-out: IC50 F179
[5] = molecular target: T1, E. coli nitroreductase; assay type: biochemical
[6] = tested on: SKOV3 human ovarian carcinoma cells not infected (NR−); assay: cells; assay type: cell-based
[7] = tested on: SKOV3 human ovarian carcinoma cells infected with adenovirus expressing E. coli nitroreductase (NR+); assay: Cytotoxicity in SKOV3 cells infected with adenovirus expressing E. coli nitroreductase (NR+), MTT; assay type: cell-based; conditions: for IC50: adenovirus NR, 100 pfu/cell; for Ratio of IC50 values (NR−/NR+): SKOV3, 18 hour drug exposure
[8] = tested on: F179 cells; assay: cells; conditions: Cricetulus griseus, read-out: IC50 F179
[9] = molecular target: T1, E. coli nitroreductase; assay: in vitro; conditions: pH 7
[10] = 72 hours drug exposure, human NQO1-expressing cells
[11] = 72 hours drug exposure, E. coli nitroreductase-expressing cells, read-out: IC50 T116
[12] = 72 hours drug exposure, vector-only control cells
[13] = 200 μM compound, 1 mM NADH, 1.8 μg E. coli nitroreductase, 10 mM phosphate buffer pH 7.0, 37° C., 250 μL, UV 340 nm
[14] = Homo sapiens, SK-OV-3, 18 h, read-out: IC50 in SKOV3 NR−
[15] = Homo sapiens, SK-OV-3, 18 h, read-out: IC50 in SKOV3 NR+, 18 hour drug exposure
[16] = 18 hour drug exposure; uninfected cells; read-out: IC50 in SKOV3 NR−
[17] = 18 hour drug exposure, read-out: IC50 in SKOV3 NR+
[18] = Cricetulus griseus, V79, 72 h, read-out: IC50 T116
[19] = Cricetulus griseus, V79, 1 h, read-out: IC50 T116
[20] = read-out: IC50 in SKOV3 NR+, 18 hour drug exposure

T1 sequence (P38489 whole entry): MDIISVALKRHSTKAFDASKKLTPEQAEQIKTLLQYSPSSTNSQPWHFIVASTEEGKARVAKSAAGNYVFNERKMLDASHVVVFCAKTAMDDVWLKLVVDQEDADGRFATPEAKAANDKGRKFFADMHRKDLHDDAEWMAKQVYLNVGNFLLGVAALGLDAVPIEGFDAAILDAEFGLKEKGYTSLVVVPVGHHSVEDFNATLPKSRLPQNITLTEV

SMILES | Ratio of IC50 values (F179/T116) [2] | NR assay t1/2 (half-life of reduction by E. coli nitroreductase) [3] | NR Assay vi (initial velocity) [5, 13] | IC50 [6, 14] | IC50 [7, 15] | Ratio of IC50 values (NR−/NR+) [7] | IC50 [7, 17] | other results
O=[N+]([O-])c1ccc([C@H]2CCN[P@@](=O)(N(CCCl)CCCl)N2)cc1 [trans-13d, 2-[Bis(2-chloroethyl)amino]-4-(p-nitrophenyl)-2H-1,3,2-diazaphosphorinane 2-oxide] | >2.1 | 4.2 min | – | – | – | – | – | IC50 [1, 10]: > 100 µM; IC50 [2, 11]: 48.3 µM; IC50 [4, 12]: > 100 µM
O=[N+]([O-])c1ccc([C@H]2CCN[P@@](=O)(N(CCCl)CCCl)N2)cc1 [cis-13d, 2-[Bis(2-chloroethyl)amino]-4-(p-nitrophenyl)-2H-1,3,2-diazaphosphorinane 2-oxide] | 12.3 | 6.4 min | – | – | – | – | – | IC50 [1]: 46.8 µM; IC50 ([2]; read-out: IC50 T116): 4.6 µM; IC50 [4]: 56.8 µM
NP(=O)(OCc1cccc([N+](=O)[O-])c1)N(CCCl)CCCl (stereo not shown) [Compound 15b, 3-nitrobenzyl N,N-bis(2-chloroethyl)phosphordiamidate] | – | – | 1.23 nmol/min | 820 µM | 240 µM | 3.4 | – | –
Cc1cc(COP(N)(=O)N(CCCl)CCCl)ccc1[N+](=O)[O-] (stereo not shown) [Compound 15g, 3-methyl-4-nitrobenzyl N,N-bis(2-chloroethyl)phosphordiamidate] | – | – | 1.61 nmol/min | 510 µM | 3.3 µM | 155 | – | –
COc1cc([N+](=O)[O-])ccc1COP(N)(=O)N(CCCl)CCCl (stereo not shown) [Compound 15i, 2-methoxy-4-nitrobenzyl N,N-bis(2-chloroethyl)phosphordiamidate] | – | – | 12.56 nmol/min | > 1000 µM | 1.8 µM | >556 | – | –
O=[N+]([O-])c1ccc([C@H]2CCO[P@@](=O)(N(CCCl)CCCl)N2)cc1 [cis-13b, 2-[Bis(2-chloroethyl)amino]-4-(p-nitrophenyl)-2H-1,3,2-oxazaphosphorinane 2-oxide] | >2.2 | 11.9 min | – | – | – | >2 | 510 µM | IC50 [1]: > 100 µM; IC50 ([2]; read-out: IC50 T116): 45.3 µM; IC50 [6, 16]: > 1000 µM; IC50 [4]: > 100 µM
O=[N+]([O-])c1ccc([C@@H]2CCN[P@](=O)(N(CCCl)CCCl)O2)cc1 [cis-13c, 2-[Bis(2-chloroethyl)amino]-6-(p-nitrophenyl)-2H-1,3,2-oxazaphosphorinane 2-oxide] | – | 5.2 min | 2.33 nmol/min | – | – | 151 | 4.5 µM | IC50 [1]: > 100 µM; IC50 [6, 16]: 680 µM
O=[N+]([O-])c1ccc([C@H]2CCO[P@@](=O)(N(CCCl)CCCl)N2)cc1 [trans-13b, 2-[Bis(2-chloroethyl)amino]-4-(p-nitrophenyl)-2H-1,3,2-oxazaphosphorinane 2-oxide] | >1.9 | 2.9 min | – | – | – | 3.3 | 250 µM | IC50 [1, 10]: > 100 µM; IC50 [2, 11]: 51.5 µM; IC50 ([6]; read-out: IC50 in SKOV3 NR−): 820 µM; IC50 [4, 12]: > 100 µM
O=[N+]([O-])c1ccc2c(c1)NP(=O)(N(CCCl)CCCl)NC2 (stereo not shown) [Compound 9d, 7-Nitro-2-[bis(2-chloroethyl)amino]-1,3,2-benzodiazaphosphorinane-2-oxide] | ˜1 | – | – | – | – | – | – | IC50 ([1]; Cricetulus griseus, V79, 72 h): > 100 µM; IC50 [2, 18]: > 100 µM; IC50 ([8]; 72 h): > 100 µM; half-life [9]: 7.8 min
O=[N+]([O-])c1ccc2c(c1)NP(=O)(N(CCCl)CCCl)OC2 (stereo not shown) [Compound 9c, 7-Nitro-2-[bis(2-chloroethyl)amino]-3,1,2-benzoxazaphosphorinane-2-oxide] | >33 | – | 1.63 nmol/min | 540 µM | 55 µM | 9.8 | – | IC50 ([1]; Cricetulus griseus, V79, 72 h): > 100 µM; IC50 [2, 18]: 3 µM; IC50 ([8]; 72 h): > 100 µM; half-life [9]: 13 min
COC(=O)c1cc(COP(N)(=O)N(CCCl)CCCl)ccc1[N+](=O)[O-] (stereo not shown) [Compound 15f, 3-methoxycarbonyl-4-nitrobenzyl N,N-bis(2-chloroethyl) phosphordiamidate] | – | – | 0.30 nmol/min | – | – | 190 | 2.1 µM | IC50 [6, 16]: 400 µM
O=[N+]([O-])c1ccc([C@@H]2CCN[P@](=O)(N(CCCl)CCCl)O2)cc1 [trans-13c, 2-[Bis(2-chloroethyl)amino]-6-(p-nitrophenyl)-2H-1,3,2-oxazaphosphorinane 2-oxide] | 22,519 | 3.9 min | – | – | – | >200 | 5 µM | NR Assay vi (initial velocity) ([5]; pH 7): 3.54 nmol/min; IC50 [1, 10]: > 100 µM; Ratio of IC50 values (F179/T116) ([2]; 1 hour drug exposure): >602; IC50 ([2]; 1 hour drug exposure, read-out: IC50 T116): 0.166 µM; IC50 [2, 11]: 0.027 µM; IC50 ([6]; read-out: IC50 in SKOV3 NR−): > 1000 µM; IC50 ([4]; 1 hour drug exposure): > 100 µM
NP(=O)(OCc1ccccc1[N+](=O)[O-])N(CCCl)CCCl (stereo not shown) [Compound 15a, 2-nitrobenzyl N,N-bis(2-chloroethyl)phosphordiamidate] | – | – | 0.46 nmol/min | 950 µM | 90 µM | 11 | – | –
NC(=O)c1cc(N2CC2)c([N+](=O)[O-])cc1[N+](=O)[O-] [CB1954, 5-(aziridin-1-yl)-2,4-dinitrobenzamide, reference compound] | – | – | – | – | 4 µM | – | – | IC50 ([1]; Cricetulus griseus, V79, 72 h): 1.7 µM; IC50 [2, 19]: 0.306 µM; IC50 [2, 18]: 0.036 µM; IC50 ([6]; Homo sapiens, SK-OV-3; 18 hour drug exposure; uninfected cells; read-out: IC50 in SKOV3 NR−): 600 µM; IC50 ([8]; 1 h): > 100 µM; IC50 ([8]; 72 h): 254 µM; half-life ([9]; E. coli): 5 min
CC(OP(N)(=O)N(CCCl)CCCl)c1ccc([N+](=O)[O-])cc1 (single isomer, unassigned) [Compound 15d-B, 1-(4-nitrophenyl)ethyl N,N-bis(2-chloroethyl)phosphordiamidate] | – | – | 1.65 nmol/min | – | – | >250 | – | IC50 ([6]; read-out: IC50 in SKOV3 NR−; 18 hour drug exposure; uninfected cells): > 1000 µM; IC50 [7, 20]: 4 µM
CC(OP(N)(=O)N(CCCl)CCCl)c1ccc([N+](=O)[O-])cc1 (single isomer, unassigned) [Compound 15d-A, 1-(4-nitrophenyl)ethyl N,N-bis(2-chloroethyl)phosphordiamidate] | – | – | 2.53 nmol/min | > 1000 µM | – | >556 | – | IC50 [7, 20]: 1.8 µM
NP(=O)(OCc1ccc([N+](=O)[O-])cc1)N(CCCl)CCCl (stereo not shown) [Compound 15c, 4-nitrobenzyl N,N-bis(2-chloroethyl)phosphordiamidate] | 20,833 and >10,000 | – | 2.31 nmol/min | > 1000 µM | 1.1 µM | >909 | – | IC50 ([1]; Cricetulus griseus, V79, 72 h): 27 µM; IC50 [2, 19]: 0.01 µM; IC50 ([2]; Cricetulus griseus, V79, 1 h, read-out: IC50 in E. coli nitroreductase-expressing T116 cells): 0.01 µM; IC50 [2, 18]: 0.003 µM; IC50 ([2]; Cricetulus griseus, V79, 72 h, read-out: IC50 in E. coli nitroreductase-expressing T116 cells): 0.003 µM; IC50 ([8]; 1 h): > 100 µM; IC50 ([8]; 72 h): 62.5 µM
COc1cc(COP(N)(=O)N(CCCl)CCCl)ccc1[N+](=O)[O-] (stereo not shown) [Compound 15h, 3-methoxy-4-nitrobenzyl N,N-bis(2-chloroethyl)phosphordiamidate] | – | – | 4.40 nmol/min | 910 µM | 3.1 µM | 294 | – | –
O=[N+]([O-])c1ccc2c(c1)OP(=O)(N(CCCl)CCCl)NC2 (stereo not shown) [Compound 9b, 7-Nitro-2-[bis(2-chloroethyl)amino]-1,3,2-benzoxazaphosphorinane-2-oxide] | 1.3 | – | – | 510 µM | 410 µM | 1.2 | – | IC50 ([1]; Cricetulus griseus, V79, 72 h): 48 µM; IC50 [2, 18]: 48 µM; IC50 ([8]; 72 h): 61 µM; half-life [9]: 11 min
NC(=O)c1cc(COP(N)(=O)N(CCCl)CCCl)ccc1[N+](=O)[O-] (stereo not shown) [Compound 15e, 3-carboxamide-4-nitrobenzyl N,N-bis(2-chloroethyl)phosphordiamidate] | – | – | 0.38 nmol/min | – | – | >24 | 41 µM | IC50 [6, 16]: > 1000 µM

— patent US20040214798A1 (priority 2003, published 2004)
